The values below come from patent US5739284A, “Compositions corresponding to a high-affinity glutamate transporter molecule and methods for making and using same” (Brigham and Women's Hospital, Inc., priority 1995, dated 1998).

Residue numbers refer to the chain shown, from its start. Where two headings read alike, the source gives them in different places.

In data set [1] the target is T1, rabbit derived excitatory amino acid carrier (Oryctolagus cuniculus, UniProt P31597).
T1 construct: ID No. 4; expressed in transfected cells; host or cells: Xenopus laevis oocytes injected with cRNA (25 ng/oocyte)
T1 sequence (P31597 1-524): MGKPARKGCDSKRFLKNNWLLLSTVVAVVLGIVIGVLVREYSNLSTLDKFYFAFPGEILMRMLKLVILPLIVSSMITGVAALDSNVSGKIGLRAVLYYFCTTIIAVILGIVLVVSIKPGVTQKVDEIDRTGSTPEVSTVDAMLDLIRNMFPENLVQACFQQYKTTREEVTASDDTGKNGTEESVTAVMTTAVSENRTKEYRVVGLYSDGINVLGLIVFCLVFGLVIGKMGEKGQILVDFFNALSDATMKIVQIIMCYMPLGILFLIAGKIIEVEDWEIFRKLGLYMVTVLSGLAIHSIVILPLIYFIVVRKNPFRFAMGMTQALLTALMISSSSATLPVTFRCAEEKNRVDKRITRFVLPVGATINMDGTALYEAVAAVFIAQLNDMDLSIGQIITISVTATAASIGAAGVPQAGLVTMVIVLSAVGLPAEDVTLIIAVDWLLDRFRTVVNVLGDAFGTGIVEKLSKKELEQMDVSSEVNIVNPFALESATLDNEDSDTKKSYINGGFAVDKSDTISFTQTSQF
In words: inhibition of current evoked by L-glutamate in oocytes expressing rabbit EAAC1. The data set is classed as cell-based. On the procedure: Xenopus laevis oocytes were injected with cRNA (25 ng/oocyte) encoding for the excitatory amino acid carrier protein derived from rabbit as described in Example 1. Electrophysiological measurements were performed 3-4 days after injection using a conventional two-microelectrode voltage clamp method (Axoclamp-2A, Axon Instruments, CA).
The standard bath solution (ND 96) contained 96 mM NaCl, 2 mM KCl, 1.8 mM CaCl2, 1.0 mM MgCl2 and 5 mM HEPES pH 7.4 The recording chamber was perfused with bath solution. Current responses of Xenopus laevis oocytes injected with cRNA coding for the excitatory amino acid carrier protein and fragments thereof to bath applied 100 μM substrates are illustrated in FIG. 7.
Example 7 illustrates the application of the electrophysiological features of the excitatory amino acid carrier protein, derived from rabbit, described in Example 6 in the screening of drugs to enhance or inhibit the protein. The Xenopus laevis oocytes was injected with rabbit derived excitatory amino acid carrier cRNA and processed as described in Example 6. […] Robinson, M. B., Hunter-Ensor, M. & Sinor, J., "Pharmacologically distinct sodium-dependentL-[3H]glutamate transport process in rat brain," Brain Research 544:196-202 (1991).

Data set [2] relates to synaptosomal L-glutamate uptake. As to conditions: Robinson et al. / previously known; cited from earlier work.
Data set [3] deals with T2, Human High Affinity Glutamate Transporter HEAAC1 (Homo sapiens, UniProt P43005).
T2 sequence (P43005 1-524 V96L/K170N/P172A/L260H): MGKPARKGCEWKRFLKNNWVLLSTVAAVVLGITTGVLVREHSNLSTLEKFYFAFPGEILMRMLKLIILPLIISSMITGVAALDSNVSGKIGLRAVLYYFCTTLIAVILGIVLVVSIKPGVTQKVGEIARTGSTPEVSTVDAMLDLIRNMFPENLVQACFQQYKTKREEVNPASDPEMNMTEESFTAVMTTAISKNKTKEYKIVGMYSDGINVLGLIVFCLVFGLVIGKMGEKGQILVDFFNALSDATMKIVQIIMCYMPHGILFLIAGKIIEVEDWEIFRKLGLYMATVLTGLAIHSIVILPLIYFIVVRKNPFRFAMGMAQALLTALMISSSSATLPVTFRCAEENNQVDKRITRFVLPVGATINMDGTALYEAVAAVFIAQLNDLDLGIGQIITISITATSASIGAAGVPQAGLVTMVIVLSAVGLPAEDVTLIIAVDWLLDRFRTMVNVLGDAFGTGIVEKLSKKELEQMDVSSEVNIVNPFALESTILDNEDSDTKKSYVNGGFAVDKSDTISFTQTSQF
In words: substrate-evoked currents in oocytes expressing human carrier. As to conditions: for inward currents induced: AAD at 50 μM, DHK up to 1 mM. The text has this:
(§1) The glutamate evoked currents were first measured without addition of inhibitor. […] Calculation of KI values was based on the kinetics for competitive inhibition.
Oocytes were used for two-microelectrode voltage-clamping as described above and command potentials were applied and controlled by an IBM-compatible computer via the software CLAMPEX from pCLAMP (version 5.5 Axon Instruments, CA). The oocyte membrane was held at -50 mV and pulsed to the test potential for […] followed by a 1 sec interpulse interval at the holding potential of -50 mV before application of the next pulse. Current was low-pass filtered at […], digitized at 200 μsec and saver on the computer. Steady-state currents were obtained by averaging the current between 72 and 76 msec.

In data set [4] the target is T2, Human High Affinity Glutamate Transporter HEAAC1. In words: inhibition of L-glutamate-evoked currents in oocytes expressing human carrier. The class given is cell-based. On the set-up: expressed in transfected cells; host or cells: Xenopus laevis oocytes (cRNA injection; human kidney clone K-3). As to conditions: for inhibition of the current induced by L-glutamate: L-glutamate 10-1,000 μM, DHK 1 mM; for order of sensitivity to inhibitors based on IC50 values: current induced by 100 μM L-glutamate; for Ki / IC50: HEAAC1; for Ki: based on the kinetics for competitive inhibition.
Text: as §1

The target of data set [5] is T3, excitatory amino acid carrier protein (EAAC1) derived from rabbit (Oryctolagus cuniculus, UniProt P31597).
T3 sequence (P31597 1-524): T1 sequence (P31597 1-524)
In words: substrate-evoked currents (two-microelectrode voltage clamp) in oocytes expressing rabbit EAAC1. The note with it: 100 μM substrate, -60 mV holding potential, FIG. 7.
Description: (§2) The membrane current was measured in standard bath solution (ND 96) at -60 mV holding potential. Substrates were applied at the bars.
(§3) FIG. 9 graphically depicts the changes in glutamate induced current measured in nanoampere (nA) at concentrations ranging from 1 μM to 1 mM glutamate. The results were fitted to a Michaelis-Menton curve. An Eadie-Hofstee plot is depicted in the inset.
(§4) Xenopus laevis oocytes were injected with excitatory amino acid carrier cRNA derived from rabbit (25 ng/oocyte) and used for two microelectrode voltage clamp experiments. Recordings were performed at -60 mV in regular ND 96 saline (96 mM NaCl, 2 mM KCl, 1.8 mM CaCl2, 1.0 mM MgCl2 and 5 mM Hepes pH 7.4).

In data set [6] the target is T4, human excitatory amino acid carrier (Homo sapiens, UniProt P43005).
T4 sequence (P43005 1-524): T2 sequence (P43005 1-524 V96L/K170N/P172A/L260H) with L96V, N170K, A172P, H260L
In words: voltage dependence of currents mediated by human carrier. The class given is cell-based.
Description: (§5) Oocytes were used for two-microelectrode voltage-clamping as described above and command potentials were applied and controlled by an IBM-compatible computer via the software CLAMPEX from pCLAMP (version 5.5 Axon Instruments, CA). The oocyte membrane was held at -50 mV and pulsed to the test potential for msec followed by a 1 sec interpulse interval at the holding potential of -50 mV before application of the next pulse. Current was low-pass filtered at 50 kHz, digitized at 200 μsec and saver on the computer. Steady-state currents were obtained by averaging the current between 72 and 76 msec.

Substrate in data set [7]: N[C@H](C(=O)O)[C@H](O)C(=O)O
Description: cells, lysate or membranes. As to conditions: other: HEAAC1, human.
Description: as §5

Substrate in data set [8]: N[C@@H](CCCC(=O)O)C(=O)O
Description: cells, lysate or membranes. The note with it: other: HEAAC1, human.

Substrate in data set [9]: O=C(O)[C@H]1CN[C@H](C(=O)O)C1
Description: cells, lysate or membranes. As to conditions: other: HEAAC1, human.
Description: as §5

Substrate in data set [10]: N[C@@H](CC(=O)O)C(=O)O
In words: cells, lysate or membranes. The note with it: other: EAAC1, rabbit derived; pH 7.4.
Description: as §2, §3, §4

Substrate in data set [11]: N[C@H](CC(=O)O)C(=O)O
Description: cells, lysate or membranes. The note with it: other: EAAC1, rabbit derived; pH 7.4.
Description: as §2, §3, §4

Substrate in data set [12]: N[C@@H](CCC(=O)O)C(=O)O
Description: cells, lysate or membranes. As to conditions: pH 7.4.

Where [13] appears, read: IC50, L-Glu = 100 um, L-Glu = 100 um.

With `CC(C)[C@H]1CN[C@H](C(=O)O)[C@H]1CC(=O)O` [DHK, dihydrokainate], the IC50 in [1] (rabbit EAAC1, value in mM, read-out: IC50, inhibition of glutamate induced inward currents) was > 1 mM. Further, in [2], the “inhibition of synaptosomal L-glutamate uptake” value is “less effective inhibitors”. The inward currents induced result in [3] is “did not induce significant currents”. In addition, in data set [4], the “inhibition of the current induced by L-glutamate” value (shortened to “inhibition of the current induced”) was “did not inhibit the current efficiently” and the “order of sensitivity to inhibitors based on IC50 values” is given as “THA>PDC>>AAA>DHK”. Further, in data set [4] (read-out: inhibition at 1 mM DHK (IC50)), the inhibition at 1000 µM stood at 6.7%.
As for `C=C(C)[C@H]1CN[C@H](C(=O)O)[C@H]1CC(=O)O` [kainate], the “amplitude of inward current evoked by substrate” value in data set [5] was “did not induce current”.
For `N[C@@H](CCC(=O)O)C(=O)O` [L-glutamate], the “voltage dependence of Km for L-glutamate” value in [6] is on record as “strongly depended on membrane voltage”.
`N[C@@H](CCCC(=O)O)C(=O)O` [AAD, L-α-aminoadipate]: in [1], the IC50 worked out at 0.165 mM. Further, in [4], the Ki was ~20 µM and the “order of sensitivity to inhibitors based on IC50 values” is given as “THA>PDC>>AAA>DHK”.
In data set [1], `N[C@H](C(=O)O)[C@H](O)C(=O)O` (relative stereo) [THA, DL-threo-β-hydroxyaspartate] displayed an IC50 of 0.0071 mM. In addition, in data set [2], the “inhibition of synaptosomal L-glutamate uptake” value was “strong inhibitor”. Besides, in [3], the “substrate of the carrier / effect on transport” value is listed as “transport substrates” and the inward currents induced entry is given as “large inward currents”. In data set [4] (setting [13]), this molecule had an IC50 of 28 ± 0.8 µM. Besides, in data set [4], the “inhibition of the current induced” value is listed as “potent inhibitors” and the “order of sensitivity to inhibitors based on IC50 values” was “THA>PDC>>AAA>DHK”.
On to `O=C(O)[C@H]1CN[C@H](C(=O)O)C1` [PDC, L-trans-pyrolidine-2,4-dicarboxylate], for which, in data set [6], the “Vmax for the PDC-induced current” value was “markedly reduced”; the “overall voltage-dependencies of L-glutamate and PDC evoked currents” value was “identical”. Moreover, in data set [3], the “substrate of the carrier / effect on transport” value is recorded as “transport substrates” and the inward currents induced entry is “large inward currents”. For the same molecule, in data set [4], the Ki is ~1 µM, the “inhibition of the current induced” value is recorded as “potent inhibitors” and the “order of sensitivity to inhibitors based on IC50 values” is on record as “THA>PDC>>AAA>DHK”. Also, in [4] (IC50, L-Glu = 1 mM, L-Glu = 1 mM), it took 91 ± 7.2 µM to reach half-maximal inhibition (IC50). This molecule displayed an IC50 in [4] (setting [13]) of 74 ± 11 µM. Moreover, in [4] (human carrier), the “maximal transport rate (Vmax) of glutamate uptake” value is listed as “reduces the maximal transport rate (Vmax)” and the “preference as uptake inhibitor” value is “preferred uptake inhibitor”.
Regarding `N[C@@H](Cn1oc(=O)[nH]c1=O)C(=O)O` [Quisgualate, quisgualate], in [5], the “amplitude of inward current evoked by substrate” value is given as “small but significant inward current”.

B1: Human High Affinity Glutamate Transporter HEAAC1 (Homo sapiens) (protein)
chain: T2 sequence (P43005 1-524 V96L/K170N/P172A/L260H)
In the case of B1, the figures for the Km in data set [7], in data set [8] and in data set [9] were 34 ± 6.4 µM, 2400 ± 0.6 µM and 23 ± 3.7 µM, respectively.

B2: excitatory amino acid carrier protein (EAAC1) derived from rabbit (Oryctolagus cuniculus) (protein)
chain: T1 sequence (P31597 1-524)
Consider B2, for which the Km in [10] is 6.5 µM; in data set [11], 7.5 µM; in data set [12] (other: EAAC1, rabbit derived), 12.1 µM; in data set [12] (other: glutamate-induced current, rabbit EAAC1 in oocytes), 12.2 µM.

Broadly, the IC50 is the concentration that gives 50% inhibition. Usually inhibition stands for the share of the control response that was lost under treatment. By Ki is commonly meant a dissociation constant, usually derived from enzyme kinetics or from competition with a known ligand. Lower therefore signals higher affinity. For orientation: Km means the concentration of substrate that gives half-maximal velocity.
